One block for each compound: values may come before it. The source made the active and inactive calls. The rule behind the calls is not given here.
Key:
HeLa [1] = test: Induction of LC3 autophagy in human HeLa cells stably expressing GFP-LC3 assessed as increase of the LC3-II level at 10 uM after 6 hrs by immunoblotting; type: functional, cell-based
U2OS = test: Induction of LC3 autophagy in human U2OS cells stably expressing GFP-LC3 assessed as increasing number of punctuate GFP-LC3 dots at 10 uM after 6 hrs by confocal microscopy; type: functional, cell-based
SH-SY5Y = test: Induction of LC3 autophagy in human SH-SY5Y cells stably expressing GFP-LC3 assessed as increasing number of punctuate GFP-LC3 dots at 10 uM after 6 hrs by confocal microscopy; type: functional, cell-based
HeLa [2] = test: Induction of LC3 autophagy in human HeLa cells stably expressing GFP-LC3 assessed as increasing number of punctuate GFP-LC3 dots after 6 to 24 hrs by confocal microscopy; type: functional, cell-based
HeLa [3] = test: Induction of LC3 autophagy in human HeLa cells stably expressing GFP-LC3 assessed as increasing number of punctuate GFP-LC3 dots at 5 to 10 uM by confocal microscopy; type: functional, cell-based; settings: TDE = time-dependent effect
HeLa [4] = test: Induction of LC3 autophagy in human HeLa cells stably expressing GFP-LC3 assessed as increase of the LC3-II level after 12 to 24 hrs by Western blotting analysis; type: functional, cell-based
HeLa [5] = test: Induction of LC3 autophagy in human HeLa cells stably expressing GFP-LC3 assessed as increase of the LC3-II level at 1 to 20 uM by Western blotting analysis; type: functional, cell-based; settings: TDE = time-dependent effect
HeLa [6] = test: Induction of LC3 autophagy in human HeLa cells stably expressing GFP-LC3 assessed as increasing number of punctuate GFP-LC3 dots at 10 uM after 6 hrs by confocal microscopy in presence of bafilomycin A1; type: functional, cell-based
HeLa [7] = test: Induction of LC3 autophagy in human HeLa cells stably expressing GFP-LC3 assessed as increase of the LC3-II level at 10 uM after 6 hrs by Western blotting analysis in presence of bafilomycin A1; type: functional, cell-based
HeLa [8] = test: Induction of LC3 autophagy in ATG5 KO human HeLa cells stably expressing GFP-LC3 assessed as increase of the LC3-II level at 10 uM after 6 hrs by Western blotting analysis; type: functional, cell-based
HeLa [9] = test: Induction of LC3 autophagy in ATG5 KO human HeLa cells stably expressing GFP-LC3 assessed as increasing number of punctuate GFP-LC3 dots at 10 uM after 6 hrs by confocal microscopy; type: functional, cell-based
HeLa [10] = test: Induction of LC3 autophagy in Beclin1 KO human HeLa cells stably expressing GFP-LC3 and transfected of Beclin2 siRNA assessed as increase of the LC3-II level at 10 uM after 6 hrs by Western blotting analysis; type: functional, cell-based
HeLa [11] = test: Induction of LC3 autophagy in Beclin1 KO human HeLa cells stably expressing GFP-LC3 assessed as increase of the LC3-II level at 10 uM after 6 hrs by Western blotting analysis; type: functional, cell-based
HeLa [12] = test: Induction of mitochondrial dysfunction in human HeLa cells at 10 uM after 6 hrs using anti-Tim23 antibody by confocal microscopy; type: functional, cell-based
HeLa [13] = test: Induction of mitochondrial dysfunction in human HeLa cells at 10 uM after 6 to 24 hrs using anti-Tom20 and anti-Tim23 antibodies by Western blotting; type: functional, cell-based
HeLa [14] = test: Induction of mitochondrial dysfunction in human HeLa cells assessed as reduction in mitochondrial mass at 10 uM after 6 to 24 hrs using anti-Tom20 and anti-Tim23 antibodies by Western blotting; type: functional, cell-based
HeLa [15] = test: Induction of mitochondrial dysfunction in human HeLa cells stably expressing GFP-LC3 at 10 uM after 6 to 24 hrs using anti-Tim23 antibodies by Western blotting; type: functional, cell-based
HeLa [16] = test: Induction of mitochondrial dysfunction in human HeLa cells stably expressing GFP-LC3 assessed as loss of mitochondrial membrane potential at 10 uM after 6 to 24 hrs using TMRE staining by confocal microscopy; type: functional, cell-based
HeLa [17] = test: Induction of mitochondrial dysfunction in human HeLa cells stably expressing GFP-LC3 assessed as loss of mitochondrial membrane potential at 10 uM after 6 to 24 hrs using TMRE staining by flow cytometry; type: functional, cell-based
HeLa [18] = test: Induction of cytosolic ROS production in human HeLa cells at 5 to 10 uM after 24 hrs using DCF by flow cytometry; type: functional, cell-based
HeLa [19] = test: Induction of mitochondrial ROS production in human HeLa cells at 5 to 10 uM after 24 hrs using Mito-SOX by flow cytometry; type: functional, cell-based
HeLa [20] = test: Induction of ROS production in human HeLa cells stably expressing GFP-LC3 assessed as increasing number of punctuate GFP-LC3 dots at 5 to 10 uM after 6 hrs by confocal microscopy in presence of ROS scavenger NAC; type: functional, cell-based
HeLa [21] = test: Induction of ROS production in human HeLa cells stably expressing GFP-LC3 assessed as increase of the LC3-II level at 5 to 10 uM after 6 hrs by Western blot analysis in presence of ROS scavenger NAC; type: functional, cell-based
[22] = target: T1, c-Jun N-terminal kinase, JNK (Homo sapiens) (UniProt P45983+P53779+P45984); test: Induction of JNK phosphorylation in human HeLa cells stably expressing GFP-LC3 assessed as punctuate GFP-LC3 formation at 5 uM after 6 hrs by confocal microscopy; type: cell-based
[23] = target: T1, c-Jun N-terminal kinase, JNK (Homo sapiens); test: Induction of JNK phosphorylation in human HeLa cells stably expressing GFP-LC3 assessed as increase of the LC3-II level at 5 uM after 6 hrs by Western blot analysis; type: cell-based
PC-12 [24] = test: Induction of autophagic degradation of alpha-synuclein in rat PC12 cells cotransfected with GFP-LC3 assessed as co-localiztion of alpha-synuclein with GFP-LC3 puncta by confocal microscopy; type: functional, cell-based
PC-12 [25] = test: Induction of autophagic degradation of alpha-synuclein in rat PC12 cells cotransfected with GFP-LC3 and alpha-synuclein-myc assessed as reduction in protein level at 10 uM after 12 hrs by Western blot analysis; type: functional, cell-based
PC-12 [26] = test: Induction of autophagic degradation of alpha-synuclein in rat PC12 cells cotransfected with GFP-LC3 and alpha-synuclein-myc at 10 uM after 12 hrs by Western blot analysis in presence of bafilomycin A1; type: functional, cell-based
PC-12 [27] = test: Induction of autophagic degradation of alpha-synuclein in […] KO rat PC12 cells cotransfected with GFP-LC3 and alpha-synuclein-myc at 10 uM after 12 hrs by Western blot analysis; type: functional, cell-based
[28] = target: T1, c-Jun N-terminal kinase, JNK (Homo sapiens); test: Induction of JNK phosphorylation in human HeLa cells stably expressing GFP-LC3 assessed as punctuate GFP-LC3 formation at 5 uM after 6 hrs by confocal microscopy in presence of SP600125; type: cell-based
[29] = target: T1, c-Jun N-terminal kinase, JNK (Homo sapiens); test: Induction of JNK phosphorylation in human HeLa cells stably expressing GFP-LC3 assessed as increase of the LC3-II level at 5 uM after 6 hrs by Western blot analysis in presence of SP600125; type: cell-based
HeLa [30] = test: Induction of autophagy in human HeLa cells stably expressing GFP-LC3 assessed as increasing number of punctuate GFP-LC3 dots by high-throughput screening; type: functional, cell-based
HeLa [31] = test: Induction of LC3 autophagy in human HeLa cells stably expressing GFP-LC3 assessed as increasing number of punctuate GFP-LC3 dots at 10 uM after 6 hrs by confocal microscopy; type: functional, cell-based

- Activity [22]: Active
- Activity [23]: Active
- Activity [28]: inactive
- Activity [29]: inactive
SMILES: CC(C)=C[C@H]1C[C@H](C)[C@]2(CC[C@]3(C)C[C@@H]4C(C)=CC(=O)[C@]4(O)/C(C=O)=C\C[C@H]32)O1
- Activity (HeLa [1]): Active
- Activity (U2OS): Active
- Activity (SH-SY5Y): Active
- Activity (HeLa [2]): Dose-dependent effect
- Activity (HeLa [3]): tde
- Activity (HeLa [4]): Dose-dependent effect
- Activity (HeLa [5]): tde
- Activity (HeLa [6]): Active
- Activity (HeLa [7]): Active
- Activity (HeLa [8]): inactive
- Activity (HeLa [9]): inactive
- Activity (HeLa [10]): inactive
- Activity (HeLa [11]): Active
- Activity (HeLa [12]): Active
- Activity (HeLa [13]): inactive
- Activity (HeLa [14]): inactive
- Activity (HeLa [15]): inactive
- Activity (HeLa [16]): Active
- Activity (HeLa [17]): Active
- Activity (HeLa [18]): Active
- Activity (HeLa [19]): Active
- Activity (HeLa [20]): inactive
- Activity (HeLa [21]): inactive
- Activity (PC-12 [24]): Active
- Activity (PC-12 [25]): Active
- Activity (PC-12 [26]): inactive
- Activity (PC-12 [27]): inactive
- Activity (HeLa [30]): Active
- Activity (HeLa [31]): Active

SMILES: CC(C)=C[C@H]1C[C@H](C)[C@]2(CC[C@]3(C)C[C@@H]4C(C)=CC(=O)[C@@H]4/C(C=O)=C\C[C@H]32)O1
- Activity (HeLa [31]): inactive

From ChEMBL document CHEMBL3400017, “3-Anhydro-6-hydroxy-ophiobolin A, a fungal sesterterpene from Bipolaris oryzae induced autophagy and promoted the degradation of α-synuclein in PC12 cells” (Bioorg Med Chem Lett, 2015)
